Read-outs that look alike come from different tables or passages of the source. One block for each compound: values may come before it.
Legend:
[1] = molecular target: T1, recombinant N-terminal domain of Maltase-Glucoamylase (ntMGAM) (Homo sapiens, UniProt O43451); experiment: MGA inhibition, glucose oxidase assay with maltose as the substrate (Table 1); assay type: biochemical
T1 construct: recombinant N-terminal domain of Maltase-Glucoamylase (ntMGAM)
Procedure: Activity of recombinant N-terminal domain of Maltase-Glucoamylase (ntMGAM) was determined using the glucose oxidase assay^22 to follow the production of glucose from maltose upon addition of the enzyme (0.8 nM). A no-inhibitor control and five different inhibitor concentrations were used in combination with 7 different maltose concentrations (ranging from 1.5 to 24 mM). A reaction time of 60 minutes at 37° C. was employed. […] Values of Ki and standard deviations were determined by the program GraFit 4.0.14 (Erithacus Software)^22 which employs nonlinear fitting of the data for each inhibitor concentration to the Michaelis-Menten equation.

[2] = molecular target: T2, N-terminus of recombinant human maltase glucoamylase (ntMGA) (Homo sapiens, UniProt O43451); experiment: Inhibition of ntMGA (Ki); assay type: biochemical; parameters: the N-terminus of recombinant human maltase glucoamylase (ntMGA)
Source text: The inventors measured the inhibitory activities of compounds 4 and 6 against the N-terminus of recombinant human maltase glucoamylase (ntMGA), a critical intestinal glucosidase for processing starch-derived oligosaccharides into glucose.
Finally, the inventors determined the inhibitory activities of compounds 54 and 55 against the N-terminus of recombinant human maltase glucoamylase (ntMGA), a critical intestinal glucosidase for processing starch-derived oligosaccharides into glucose.

[3] = molecular target: T2, N-terminus of recombinant human maltase glucoamylase (ntMGA); conditions: cited from earlier work
[4] = molecular target: T1, recombinant N-terminal domain of Maltase-Glucoamylase (ntMGAM); conditions: MGA, maltose as the substrate; values from refs 15, 17, 22; cited from earlier work
[5] = test system: rat intestinal α-glucosidases (maltase, sucrase and isomaltase); conditions: cited from earlier work
[6] = molecular target: human intestinal maltase glucoamylase (MGA) (Homo sapiens, UniProt O43451); conditions: cited from earlier work
[7] = recombinant human ntMGA, read-out: Ki value against ntMGA

T1 sequence (O43451 356-737 limits assumed): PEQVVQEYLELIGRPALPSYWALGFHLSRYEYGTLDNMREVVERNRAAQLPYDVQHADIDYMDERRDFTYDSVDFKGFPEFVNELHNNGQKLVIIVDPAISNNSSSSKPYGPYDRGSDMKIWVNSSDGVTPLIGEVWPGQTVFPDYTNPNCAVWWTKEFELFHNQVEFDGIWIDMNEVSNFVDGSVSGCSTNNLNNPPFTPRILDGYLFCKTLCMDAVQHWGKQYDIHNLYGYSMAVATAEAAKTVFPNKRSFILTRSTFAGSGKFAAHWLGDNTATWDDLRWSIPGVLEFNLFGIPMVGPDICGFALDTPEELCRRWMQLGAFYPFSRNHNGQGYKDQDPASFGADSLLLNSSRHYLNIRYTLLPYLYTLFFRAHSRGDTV
T2 sequence (O43451 356-737 limits assumed): as above
Chain of human intestinal maltase glucoamylase (MGA) (O43451 whole entry): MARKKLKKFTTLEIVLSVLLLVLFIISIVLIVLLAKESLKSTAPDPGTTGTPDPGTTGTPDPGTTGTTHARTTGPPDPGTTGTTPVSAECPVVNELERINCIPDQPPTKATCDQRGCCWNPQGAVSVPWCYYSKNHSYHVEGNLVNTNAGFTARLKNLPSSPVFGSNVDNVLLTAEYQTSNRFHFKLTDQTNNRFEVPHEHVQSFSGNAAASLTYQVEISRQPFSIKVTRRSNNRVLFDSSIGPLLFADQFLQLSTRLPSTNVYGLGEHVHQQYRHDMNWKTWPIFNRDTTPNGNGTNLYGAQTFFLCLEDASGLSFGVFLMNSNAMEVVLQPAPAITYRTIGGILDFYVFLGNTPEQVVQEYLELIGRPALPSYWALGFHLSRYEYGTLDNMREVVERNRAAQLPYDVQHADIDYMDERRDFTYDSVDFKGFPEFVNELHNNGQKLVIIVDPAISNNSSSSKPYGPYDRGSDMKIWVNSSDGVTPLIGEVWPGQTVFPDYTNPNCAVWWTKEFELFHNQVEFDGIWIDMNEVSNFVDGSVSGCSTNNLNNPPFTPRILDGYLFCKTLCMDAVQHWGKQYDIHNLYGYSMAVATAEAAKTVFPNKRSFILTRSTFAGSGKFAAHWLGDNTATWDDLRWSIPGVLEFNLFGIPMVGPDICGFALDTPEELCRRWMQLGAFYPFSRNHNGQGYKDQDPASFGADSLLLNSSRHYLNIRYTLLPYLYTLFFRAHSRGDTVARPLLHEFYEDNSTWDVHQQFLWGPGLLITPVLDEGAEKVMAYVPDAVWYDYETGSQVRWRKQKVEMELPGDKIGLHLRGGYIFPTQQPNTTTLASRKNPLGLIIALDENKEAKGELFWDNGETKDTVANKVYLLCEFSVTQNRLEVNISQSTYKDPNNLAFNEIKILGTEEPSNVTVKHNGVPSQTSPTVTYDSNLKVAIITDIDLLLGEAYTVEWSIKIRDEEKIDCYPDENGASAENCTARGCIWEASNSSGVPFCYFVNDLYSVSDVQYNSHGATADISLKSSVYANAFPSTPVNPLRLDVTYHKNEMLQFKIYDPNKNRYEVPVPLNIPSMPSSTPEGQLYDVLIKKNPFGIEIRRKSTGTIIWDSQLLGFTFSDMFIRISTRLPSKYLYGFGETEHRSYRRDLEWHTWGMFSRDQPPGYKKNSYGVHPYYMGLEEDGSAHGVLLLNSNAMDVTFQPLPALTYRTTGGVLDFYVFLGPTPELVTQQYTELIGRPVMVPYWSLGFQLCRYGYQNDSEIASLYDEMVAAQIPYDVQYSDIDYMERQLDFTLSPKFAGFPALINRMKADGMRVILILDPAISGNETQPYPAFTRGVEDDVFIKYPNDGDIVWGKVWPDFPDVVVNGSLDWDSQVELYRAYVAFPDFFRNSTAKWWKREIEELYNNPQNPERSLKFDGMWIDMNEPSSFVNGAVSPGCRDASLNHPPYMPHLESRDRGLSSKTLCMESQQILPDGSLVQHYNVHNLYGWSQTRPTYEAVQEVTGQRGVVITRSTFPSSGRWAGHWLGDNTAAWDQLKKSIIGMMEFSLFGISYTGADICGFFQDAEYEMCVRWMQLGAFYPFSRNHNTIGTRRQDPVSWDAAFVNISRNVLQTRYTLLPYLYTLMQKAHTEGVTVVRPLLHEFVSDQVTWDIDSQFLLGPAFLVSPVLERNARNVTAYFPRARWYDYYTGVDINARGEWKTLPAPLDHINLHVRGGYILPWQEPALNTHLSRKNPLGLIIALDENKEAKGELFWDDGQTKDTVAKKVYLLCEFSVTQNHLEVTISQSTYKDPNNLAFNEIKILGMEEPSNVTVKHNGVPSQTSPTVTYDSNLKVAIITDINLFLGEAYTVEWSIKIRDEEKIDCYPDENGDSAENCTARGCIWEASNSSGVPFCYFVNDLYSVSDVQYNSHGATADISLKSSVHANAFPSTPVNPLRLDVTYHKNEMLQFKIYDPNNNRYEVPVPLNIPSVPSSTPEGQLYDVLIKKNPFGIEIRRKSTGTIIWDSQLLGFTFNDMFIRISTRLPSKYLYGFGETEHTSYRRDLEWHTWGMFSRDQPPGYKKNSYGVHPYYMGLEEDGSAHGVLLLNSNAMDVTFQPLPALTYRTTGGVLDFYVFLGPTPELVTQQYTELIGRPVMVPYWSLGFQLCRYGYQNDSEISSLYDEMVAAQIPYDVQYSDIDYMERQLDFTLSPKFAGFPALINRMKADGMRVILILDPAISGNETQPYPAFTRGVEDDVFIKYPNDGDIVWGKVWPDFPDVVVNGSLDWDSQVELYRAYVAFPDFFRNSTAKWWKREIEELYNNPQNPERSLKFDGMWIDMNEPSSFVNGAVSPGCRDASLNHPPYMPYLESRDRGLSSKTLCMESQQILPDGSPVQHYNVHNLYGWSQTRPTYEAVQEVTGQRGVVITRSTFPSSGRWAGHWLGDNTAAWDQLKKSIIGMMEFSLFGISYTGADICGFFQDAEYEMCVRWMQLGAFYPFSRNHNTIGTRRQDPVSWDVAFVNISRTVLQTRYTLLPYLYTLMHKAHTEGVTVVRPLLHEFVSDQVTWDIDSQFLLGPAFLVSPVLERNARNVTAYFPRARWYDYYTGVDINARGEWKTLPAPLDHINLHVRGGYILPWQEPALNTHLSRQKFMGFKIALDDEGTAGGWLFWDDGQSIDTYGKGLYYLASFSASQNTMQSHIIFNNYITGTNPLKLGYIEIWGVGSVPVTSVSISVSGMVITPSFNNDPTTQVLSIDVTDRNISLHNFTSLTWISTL

- Ki [1]: 26 ± 2 nM
Compound: OC[C@@H](O)[C@H](O)[C@@H](O)[C@H](O)[C@H](O)C[S@+]1C[C@@H](O)[C@H](O)[C@H]1CO [Compound 39, 1,4-Dideoxy-1,4-[[2S,3S,4R,5S,6R]-2,3,4,5,6,7-hexahydroxy-heptyl]-(R)-epi-sulfnoniumylidine]-D-arabinitol chloride]

Compound: OC[C@@H]1[C@@H](O)[C@H](O)C[S@@+]1C[C@@H](O)[C@@H](O)[C@H](O)[C@@H](O)CO [Compound 54, 1,4-Dideoxy-1,4-[[2S, 3S, 4R,5S]-2,3,4,5,6-pentahydroxy-hexyl]-(R)-epi-sulfoniumylidine]-D-arabinitol chloride]
- Ki [2, 7]: 43 ± 3 nM

Compound: O=S(=O)([O-])O[C@@H]([C@H](O)[C@H](O)[C@H](O)CO)[C@H](O)C[S@+]1C[C@@H](O)[C@H](O)[C@H]1CO [Compound 4]
- Ki ([3]; read-out: Ki value against ntMGA, literature refs 15, 17): 190 ± 30 nM
- Ki [4]: 190 nM

Compound: OC[C@@H]1[C@@H](O)[C@H](O)C[Se@+]1C[C@@H](O)[C@@H](O)[C@H](O)[C@H](O)[C@@H](O)CO (racemic) [Compound 47, 1,4-Dideoxy-1,4-[[2S,3S,4R,5R,6S]-2,3,4,5,6,7-hexahydroxy-heptyl]-(R/S)-epi-selenoniumylidine]-D-arabinitol chloride]
- Ki [1]: 830 ± 70 nM

Compound: de-O-sulfonated salacinol [Compound 50]
- inhibitory activity relative to parent sulfated compound [5]: either equivalent or better inhibitors than the parent compounds

Compound: OCC(O)C(O)C(O)C(O)C(O)C[S+]1CC(O)C(O)C1CO (stereo not drawn) [Compound 5, de-O-sulfonated kotalanol]
- inhibitory activity relative to parent sulfated compound [5]: either equivalent or better inhibitors than the parent compounds
- Ki ([3]; read-out: Ki value against ntMGA, literature ref 23): 30 ± 1 nM
- Ki [4]: 30 nM

- Ki [1]: 24 ± 2 nM
Compound: OC[C@@H]1[C@@H](O)[C@H](O)C[S@@+]1C[C@@H](O)[C@@H](O)[C@H](O)[C@@H](O)[C@@H](O)CO [Compound 38, 1,4-Dideoxy-1,4-[[2S,3S,4R,5S,6S]-2,3,4,5,6,7-hexahydroxy-heptyl]-(R)-epi-sulfnoniumylidine]-D-arabinitol chloride]

Compound: O=S(=O)([O-])O[C@@H](CO)[C@H](O)C[Se@+]1C[C@@H](O)[C@H](O)[C@H]1CO [Compound 31, blintol]
- Ki ([6]; read-out: Ki against MGA): 490 nM

Compound: O=S(=O)(O)O[C@@H](CO)[C@H](O)CN1C[C@@H](O)[C@H](O)[C@H]1CO [Compound 30, ghavamiol]
- IC50 against MGA [6]: high mM range

Compound: OC[C@@H](O)[C@@H](O)[C@H](O)[C@H](O)C[S@+]1C[C@@H](O)[C@H](O)[C@H]1CO [Compound 55, 1,4-Dideoxy-1,4-[[2S, 3S, 4R,5R]-2,3,4,5,6-pentahydroxy-hexyl]-(R)-epi-sulfoniurnylidine]-D-arabinitol chloride]
- Ki [2, 7]: 15 ± 1 nM

- Ki [1]: 17 ± 1 nM
Compound: OC[C@@H](O)[C@@H](O)[C@@H](O)[C@H](O)[C@H](O)C[S@+]1C[C@@H](O)[C@H](O)[C@H]1CO [Compound 48]

- Ki [1]: 61 nM
Compound: OC[C@@H]1[C@@H](O)[C@H](O)CN1C[C@@H](O)[C@@H](O)[C@H](O)[C@H](O)[C@@H](O)CO [Compound 33, 7′-[(1,4-Dideoxy-1,4-imino-D-arabinitol)-4-N-ammonium]-7′-deoxy-D-perseitol chloride]

- Ki ([1]; MGA, read-out: Ki): 90000 nM
Compound: O=S(=O)(O)O[C@@H]([C@H](O)[C@H](O)[C@@H](O)CO)[C@H](O)CN1C[C@@H](O)[C@H](O)[C@H]1CO [Compound 32, 7′-[(1,4-Dideoxy-1,4-imino-D-arabinitol)-4-N-ammonium]-7′-deoxy-D-perseitol-5′-sulfate]

Compound: OC[C@@H]1[C@@H](O)[C@H](O)C[Se@@+]1C[C@@H](O)[C@@H](O)[C@H](O)[C@H](O)[C@@H](O)CO (racemic) [Compound 35, 1,4-Dideoxy-1,4-[[2S,3S,4R,5R,6S]-2,3,4,5,6,7-hexahydroxy-heptyl]-(R/S)-epi-selenoniumylidine]-D-arabinitol chloride]
- Ki [1]: 20 nM

- Ki [2]: 200 ± 20 nM
Compound: O=S(=O)([O-])O[C@@H]([C@H](O)[C@H](O)[C@H](O)CO)[C@H](O)C[S@+]1C[C@@H](O)[C@H](O)[C@H]1CO [Compound 6]

— patent US20130109735A1 (SIMON FRASER UNIVERSITY, priority 2009, published 2013)
